Each block holds one compound with its values, some of them ahead of it.
How the values were obtained:
[1] = target: T1, DHPS (Homo sapiens, UniProt P49366); assay: Hyp'Assay: cell-free eIF5A hypusination in 96-well plates (recombinant eIF5A, DHPS, DOHH; anti-hypusine antibody Hpu24), substance present in the DHPS step; assay type: biochemical; conditions: for hypusination signal, Mean (quantification from Figure 3B): control 100,0; for concentration from which inhibition of hypusination was detectable / hypusination signal, Mean (quantification from Figure 5A): 5 μM spermidine; for hypusination signal, Mean (quantification from Figure 5A): control 98,5
T1 construct: host or cells: E. coli BL21 (DE3)
T1 sequence (P49366 1-369): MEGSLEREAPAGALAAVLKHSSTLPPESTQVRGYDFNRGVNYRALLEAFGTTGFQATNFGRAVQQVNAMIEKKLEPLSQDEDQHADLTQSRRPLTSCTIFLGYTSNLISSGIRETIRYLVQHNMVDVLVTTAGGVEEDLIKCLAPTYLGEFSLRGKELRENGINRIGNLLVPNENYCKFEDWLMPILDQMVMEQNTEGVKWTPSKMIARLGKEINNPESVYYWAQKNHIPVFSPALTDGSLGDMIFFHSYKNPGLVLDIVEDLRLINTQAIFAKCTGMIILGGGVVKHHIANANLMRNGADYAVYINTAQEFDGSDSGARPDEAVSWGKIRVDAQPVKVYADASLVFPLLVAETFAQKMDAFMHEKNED
Method: The principle of the Hyp’Assay (Fig 2A) is to perform eIF5A hypusination reaction in 96-well plates, allow eIF5A to adsorb to the plate, incubate with an anti-hypusine antibody and a secondary antibody conjugated to HRP and reveal hypusination using TMB as a substrate.
(§1) […] Then 10 μL containing 1 μg of DOHH with 10 μM Fe^2+ (H8FeN2O8S2^. 6H2O) were added. After 1 h proteins were analyzed by Western Blot using antibodies toward DHPS, DOHH, Hypusine, and eIF5A.
(§2) The cell-free reaction described in 4.4 is performed in triplicates in a 96-wells plate (MaxiSorp, ThermoFisher) in the presence of 3 μg of eIF5A, 2 μg of DHPS, and 2 μg of DOHH by well. The reaction product, hypusinated eIF5A, is adsorbed onto the plate overnight at 4°C. The plate is washed (100 μL/well) thrice with PBS-T (PBS– 0.05% Tween20), then saturated with 1% non-fat dry milk in PBS-T for 2 h at room temperature. The plate is washed thrice with PBS-T and incubated overnight at 4°C with the anti-hypusine antibody (1:2000 in saturation buffer, 50 μL/well). The next day and after 5 washes with PBS-T, HRP-coupled anti-rabbit secondary antibody diluted 1:5000 in saturation buffer (50 μL/well) is added for 2 h at room temperature.

[2] = target: T1, DHPS; assay: Hyp'Assay without DOHH: deoxyhypusination of eIF5A revealed with Hpu98 antibody; assay type: biochemical; conditions: 5 μM spermidine; CTRL 100,0; inhibitor concentration not given
Text: To address this issue, we compared the ability of GC7 to inhibit DHPS or DOHH by adding GC7 during the first step of the Hyp’Assay; when DHPS mediates the deoxyhypusination reaction (Fig 2A), or only during the second step, when DOHH hydroxylate deoxyhypusinated eIF5A. […] This confirms the specificity of GC7 towards DHPS. When finding new hypusination inhibitors adding them during the first or the second step of the Hyp’Assay will allow us to determine if the inhibition affects DHPS or DOHH. Another way to discriminate between DHPS or DOHH inhibitors would be to use Hpu98, an antibody that recognized both hypusinated and deoxyhypusinated eIF5A, instead of Hpu24, which is specific for hypusinated eIF5A [18]. […] We performed a new Hyp’Assay by omitting DOHH in the reaction mix and using the Hpu98 antibody. First, we performed a dose response experiment with spermidine at pH: 8.0 and 9.0 (Fig 3E). The Hyp’Assay allows the detection of deoxyhypusinated eIF5A in a spermidine-dependent manner. Under these conditions, deoxyhypusination was equally efficient at both pH tested. […] We also tested the ability of GC7 (Fig 3F) and CPX or EDTA (Fig 3G) to inhibit DHPS. […] This provided us with another method to distinguish between DHPS and DOHH inhibitors.
as §2

[3] = target: T2, DOHH (Homo sapiens, UniProt Q9BU89); assay: Hyp'Assay, substance added after the deoxyhypusination reaction (DOHH step); assay type: biochemical; conditions: for hypusination signal, Mean (quantification from Figure 3C): control 100,0
T2 construct: pelB leader (N); host or cells: E. coli BL21 (DE3)
T2 sequence (Q9BU89 1-302): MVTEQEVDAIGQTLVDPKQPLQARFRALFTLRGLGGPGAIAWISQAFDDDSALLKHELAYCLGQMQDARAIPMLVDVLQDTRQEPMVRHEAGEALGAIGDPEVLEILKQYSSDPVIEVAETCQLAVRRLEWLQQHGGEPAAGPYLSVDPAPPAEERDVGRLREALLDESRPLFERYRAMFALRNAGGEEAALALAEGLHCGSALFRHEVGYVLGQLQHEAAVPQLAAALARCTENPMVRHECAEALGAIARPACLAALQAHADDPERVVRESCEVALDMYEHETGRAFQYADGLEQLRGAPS
Method: We then tested the ability of DOHH inhibitors to inhibit eIF5A hypusination using the Hyp’Assay. During the Hyp’Assay, DOHH inhibitors were added after the deoxyhypusination reaction.
To address this issue, we compared the ability of GC7 to inhibit DHPS or DOHH by adding GC7 during the first step of the Hyp’Assay; when DHPS mediates the deoxyhypusination reaction (Fig 2A), or only during the second step, when DOHH hydroxylate deoxyhypusinated eIF5A. […] When finding new hypusination inhibitors adding them during the first or the second step of the Hyp’Assay will allow us to determine if the inhibition affects DHPS or DOHH. Another way to discriminate between DHPS or DOHH inhibitors would be to use Hpu98, an antibody that recognized both hypusinated and deoxyhypusinated eIF5A, instead of Hpu24, which is specific for hypusinated eIF5A [18]. […] We performed a new Hyp’Assay by omitting DOHH in the reaction mix and using the Hpu98 antibody. First, we performed a dose response experiment with spermidine at pH: 8.0 and 9.0 (Fig 3E). […] We also tested the ability of GC7 (Fig 3F) and CPX or EDTA (Fig 3G) to inhibit DHPS.
as §1, §2

[4] = system: eIF5A hypusination in MCF7 cells; assay: eIF5A hypusination in intact MCF7 cells, Western blot; assay type: cell-based, human; conditions: 40 μM, 24 h, Ctrl 100, 4 experiments
Method: We tested the ability of the GC7 analogs to inhibit hypusination in intact cells. MCF-7 cells (Fig 5B), a classical model of breast cancer cell line, and HT29 cells (Fig 5C), a cell model of colorectal cancer, were treated with 40 μM of GC7, 1, 2, 3, and 4 for 24h. Cells were lysed and analyzed by Western blot. As observed, none of the molecules modified eIF5A expression. […] GC7 analogs inhibited hypusination from 35 to 55%.
The human breast cancer cell line MCF7 (HTB-22 ATCC) and colorectal adenocarcinoma HT29 (HTB-38 ATCC) were cultured in DMEM (Gibco) supplemented with 10% FBS (Dutscher), 10 U/mL penicillin, and […] streptomycin. 1 mM of aminoguanidine was added to the medium to inhibit the degradation of GC7 and polyamines by amine oxidase from the serum and the production of reactive oxygen species. Cells were maintained at 37°C, 5% CO2 in a humid atmosphere.
After treatment, cells were washed with ice-cold PBS and lysed in RIPA Buffer (50 mM Tris pH 7.5, 150 mM NaCl, 0.1% SDS, 0.5% Na Deoxycholate, 5 mM NaF, 2.5 mM Na4P2O7, 1% NP4O) containing a protease inhibitor cocktail (complete Roche). 10 μg of proteins were separated by SDS PAGE and transferred to a PVDF membrane (Immobilon-P Millipore). The membranes were probed with the appropriate primary antibody that was detected by horseradish peroxidase-conjugated secondary antibody (Jackson Immunoresearch) and visualized by chemiluminescence (ECL Amersham RPN 3244) using a Fuji LAS-4000 imager. ImageJ® software was used to quantify band intensity and the ratios of proteins of interest were normalized to a loading control. Full-length Western blots are provided in the supplementary data (S19, S20 Figs).

[5] = concentration 1 (no unit on page; Fig 3B dose-response 0 to 1 mM)
[6] = concentration 10 (no unit on page; Fig 3B dose-response 0 to 1 mM)
[7] = concentration 100 (no unit on page; Fig 3B dose-response 0 to 1 mM)
[8] = concentration 1000 (no unit on page; Fig 3B dose-response 0 to 1 mM)
[9] = concentration 1 (no unit on page; Fig 3C dose-response 0 to 100 μM)
[10] = concentration 10 (no unit on page; Fig 3C dose-response 0 to 100 μM)
[11] = concentration 100 (no unit on page; Fig 3C dose-response 0 to 100 μM)
[12] = concentration 1 (no unit on page; Fig 5A 0 to 1 mM)
[13] = concentration 10 (no unit on page; Fig 5A 0 to 1 mM)
[14] = concentration 100 (no unit on page; Fig 5A 0 to 1 mM)
[15] = concentration 1000 (no unit on page; Fig 5A 0 to 1 mM)

SMILES: CCNCCCNCCCNCCCNCC [BENSPM, N1,N11-diethylnorspermine]
decrease in hypusination ([1]; at 100 μM): 12%
inhibition of hypusination ([1]; at 1 mM): 43%
hypusination signal, Mean (quantification from Figure 3B) [1, 5]: 97,3
hypusination signal, Mean (quantification from Figure 3B) [1, 6]: 101,9
hypusination signal, Mean (quantification from Figure 3B) [1, 7]: 88,5
hypusination signal, Mean (quantification from Figure 3B) [1, 8]: 42,9

SMILES: Cc1cc(C2CCCCC2)n(O)c(=O)c1 [CPX, ciclopirox]
Relative deoxyhypusination of eIF5A, Mean (quantification from Figure 3F, 3G) [2]: 101,2 a.u
hypusination signal, Mean (quantification from Figure 3C) [3, 9]: 97,78
hypusination signal, Mean (quantification from Figure 3C) [3, 10]: 85,18
hypusination signal, Mean (quantification from Figure 3C) [3, 11]: 55,02
maximal inhibition ([3]; dose-response 0 to 100 μM): 50%

hypusination signal, Mean (quantification from Figure 3C) [3, 9]: 28,29
hypusination signal, Mean (quantification from Figure 3C) [3, 10]: 58,42
hypusination signal, Mean (quantification from Figure 3C) [3, 11]: 34,21
SMILES: CC(=O)N(O)CCCCCNC(=O)CCC(=O)N(O)CCCCCNC(=O)CCC(=O)N(O)CCCCCN [DFX, deferoxamine]

SMILES: C[S+](C)[O-] [DMSO]
inhibition of hypusination ([1]; 10% DMSO of the total reaction mixture): 33%
effect on hypusination of eIF5A ([1]; standard concentrations of DMSO (less than 10%)): not affected

SMILES: O=C(O)CN(CCN(CC(=O)O)CC(=O)O)CC(=O)O [EDTA]
Relative deoxyhypusination of eIF5A, Mean (quantification from Figure 3F, 3G) [2]: 97,63 a.u
maximal inhibition ([3]; at 100 μM EDTA): 80%

inhibition at 1 µM ([3]; at 1 μM): 50%
hypusination signal, Mean (quantification from Figure 3C) [3, 9]: 56,38
hypusination signal, Mean (quantification from Figure 3C) [3, 10]: 57,32
hypusination signal, Mean (quantification from Figure 3C) [3, 11]: 65,33
SMILES: Nc1nc(=O)c2nc(CNc3ccc(C(=O)N[C@@H](CCC(=O)O)C(=O)O)cc3)cnc2[nH]1 [Folate, folic acid]

SMILES: N=C(N)NCCCCO [compound 1, 4-hydroxybutylguanidine]
concentration from which inhibition of hypusination was detectable [1]: 1 µM
hypusination signal, Mean (quantification from Figure 5A) [1, 12]: 70,7
hypusination signal, Mean (quantification from Figure 5A) [1, 13]: 62,5
hypusination signal, Mean (quantification from Figure 5A) [1, 14]: 61,5
hypusination signal, Mean (quantification from Figure 5A) [1, 15]: 55,2
hypusinated eIF5A, Western blot quantification, Mean (Figure 5B) [4]: 65

SMILES: N=C(N)NCCCCCCO [compound 2, 6-hydroxyhexylguanidine]
concentration from which inhibition of hypusination was detectable [1]: 1 µM
hypusination signal, Mean (quantification from Figure 5A) [1, 12]: 81,3
hypusination signal, Mean (quantification from Figure 5A) [1, 13]: 64,4
hypusination signal, Mean (quantification from Figure 5A) [1, 14]: 59,1
hypusination signal, Mean (quantification from Figure 5A) [1, 15]: 44,6
hypusinated eIF5A, Western blot quantification, Mean (Figure 5B) [4]: 44.5

SMILES: NCCCCN [putrescine]
inhibition at 1000 µM ([1]; at 1 mM): 70%
hypusination signal, Mean (quantification from Figure 3B) [1, 5]: 111,3
hypusination signal, Mean (quantification from Figure 3B) [1, 6]: 94,6
hypusination signal, Mean (quantification from Figure 3B) [1, 7]: 95,3
hypusination signal, Mean (quantification from Figure 3B) [1, 8]: 30,5

SMILES: NCCCNCCCCNCCCN [spermine]
hypusination signal, Mean (quantification from Figure 3B) [1, 5]: 106,1
hypusination signal, Mean (quantification from Figure 3B) [1, 6]: 114,0
hypusination signal, Mean (quantification from Figure 3B) [1, 7]: 104,5
hypusination signal, Mean (quantification from Figure 3B) [1, 8]: 111,4
effect on eIF5A hypusination ([1]; concentrations up to 1 mM): did not affect eIF5A hypusination
use as alternate DHPS substrate ([1]; dose response compared with spermidine (S3 Fig)): can be used as a substrate by DHPS in the Hyp’Assay, although with lower efficiency than spermidine
hypusination signal with the substance as substrate, Mean (quantification from Figure S3) ([1]; substrate concentration 0,01 (mM)): -0,07
hypusination signal with the substance as substrate, Mean (quantification from Figure S3) ([1]; substrate concentration 0,1 (mM)): 0,01
hypusination signal with the substance as substrate, Mean (quantification from Figure S3) ([1]; substrate concentration 0,0001 (mM)): 0,19
hypusination signal with the substance as substrate, Mean (quantification from Figure S3) ([1]; substrate concentration 0,001 (mM)): -0,08
hypusination signal with the substance as substrate, Mean (quantification from Figure S3) ([1]; substrate concentration 1 (mM)): 2,17
hypusination signal with the substance as substrate, Mean (quantification from Figure S3) ([1]; substrate concentration 10 (mM)): 21,70
hypusination signal with the substance as substrate, Mean (quantification from Figure S3) ([1]; substrate concentration 100 (mM)): 39,64
hypusination signal with the substance as substrate, Mean (quantification from Figure S3) ([1]; substrate concentration 1000 (mM)): 28,97
hypusination signal, Mean (quantification from Figure 3C) [3, 9]: 69,38
hypusination signal, Mean (quantification from Figure 3C) [3, 10]: 59,12
hypusination signal, Mean (quantification from Figure 3C) [3, 11]: 54,32
